Experiments:
[1] = Biodistribution in plasma and brain after single oral dose in female CB17 SCID mice; format: in vivo; details: mouse
Procedure: Female non-tumor bearing Fox Chase CB17 SCID mice were orally administered a single dose as specified in Table B1.
Brain tissues were excised and plasma was collected from all the animals receiving Compound I, or tucatinib at 1 hour, 4 hours, and 8 hours post-administration. Tucatinib was used as a reference agent. Tucatinib is a clinically approved therapy for HER2 positive breast cancer patients with brain metastases. The harvested brains were rinsed in ice-cold phosphate-buffered saline and weighed. All plasma and brain samples were stored at approximately −80° C. until thawed for LC-MS/MS analysis.
Prior to analysis, brain tissues were homogenized 1:5 with phosphate buffer. Average free brain-to-free plasma ratio (Kp,uu) was calculated from individual mice by using total concentration values determined in the brain and plasma at individual time points, or by calculating the area under the curve (AUC) and converting the values to free concentration (or AUC) with in vitro binding parameters determined in the brain (fu,b) and plasma (fu,p) as follows:
Kp,uu=Brain Concentration (or AUC)*fu,b/Plasma Concentration (or AUC)*fu,p.
Free fraction in the brain (fu,b) and in plasma (fu,p) was determined with equilibrium dialysis as follows: The brain tissue homogenate or plasma from the mice were spiked to yield a final concentration of 1 μM Compound I, or 5 μM tucatinib. Compound I and tucatinib were incubated in equilibrium dialysis plate on a shaking incubator at 37° C. with 5% CO2 at 450 rpm for 8 hours and 24 hours, respectively. Following the incubation, aliquots of the matrix and the buffer samples were sampled and the concentration of Compound I, or tucatinib were determined.
where fu,b,d is fraction unbound determined with 20% brain homogenate.

[2] = Phase 1 relative bioavailability of capsule and tablet in healthy subjects: safety; format: in vivo, human
Procedure: A Phase 1, open-label, single dose study was conducted in healthy human subjects to evaluate the relative bioavailability of two formulations of Compound I. The first formulation of Compound I (Treatment A) was in the form of a capsule comprising about 15 mg of Compound I in the form of a hemifumarate, while the second formulation of Compound I (Treatment B) was in the form of a tablet comprising about 10 mg of Compound I in the form of a malonate and pharmaceutically acceptable excipients. The primary objective of the study was to evaluate the relative bioavailability (BA) of Treatment A and Treatment B administered as a single oral dose under fasting conditions in healthy adult subjects. A secondary objective was to evaluate the safety and tolerability of single dose administration of Compound I Treatment B under fasting conditions. The endpoints of the study were AUC0-last, AUC0-24, AUC0-inf, AUC % extrap, Cmax, Tmax, Kel, t½, CL/F, and Vz/F for Treatment A and Treatment B. The endpoints also included Aetl-t2, Ae, CLr, Fet1-t2, and Fe from Treatment B in period 2. A secondary endpoint included treatment-emergent AEs (TEAEs), clinical laboratory tests, vital signs, and 12 lead electrocardiogram (ECGs).
Methodology: The study was conducted as an open-label, single-dose study. Screening of subjects occurred within 28 days prior to the first dosing. The study was conducted as a randomized, 2-period, crossover study to assess the relative BA of Treatment A and Treatment B. On Day 1 of Period 1 and of Period 2, a single oral dose of Treatment A or Treatment B were administered under fasting conditions. Blood samples for PK were collected pre-dose and through 216 hours post-dose. Urine samples for PK were collected pre-dose and through 48 hours post-dose from subjects randomized to Period 2 Treatment B (tablets). There was a washout period of at least 10 days between dosing in each period. Safety was monitored throughout the study by repeated clinical and laboratory evaluations. Discontinued subjects were not replaced. All 30 enrolled subjects completed the study and were included in the PK and safety analyses.
60 mg Compound I in the form of Treatment B (6×10 mg tablets) was administered at Hour 0 on Day 1 under fasting conditions along with approximately 240 mL of water after a 10-hour fast. The total duration of participation including the screening period for each subject was approximately 8 weeks. There were 2 periods of approximately 14 days each; washout phase was 10 days between both doses. 60 mg of Compound I in the form of Treatment A (4×15 mg capsules) was administered to subjects at Hour 0 on Day 1 under fasting conditions along with approximately 240 mL of water after a 10-hour fast.
Plasma samples for the analysis of Compound I were collected at the following time points relative to dosing on Day 1 of each period: pre-dose and at 0.5, 1, 2, 3, 4, 5, 6, 7, 8, 10, 12, 16, 24, 36, 48, 72, 96, 120, 144, and 216 hours post-dose. Safety was evaluated by TEAEs, clinical laboratory tests, vital signs, 12 lead ECGs, and physical examinations. An analysis of variance (ANOVA) was performed on the natural log (ln)-transformed AUC0-last, AUC0-inf, and Cmax. The ANOVA model included sequence, treatment, and period as fixed effects, and subject nested within sequence as a random effect, and included calculation of least-squares means (LSMs) as well as the difference between treatment LSMs. Ratios of LSMs were calculated using the exponentiation of the difference between treatment LSMs from the analyses on the In-transformed AUC0-last, AUC0-inf, and Cmax. […] Safety was evaluated by clinical laboratory tests, physical examination, vital signs, 12 lead ECGs, and adverse events (AEs). There was no inferential statistics performed.

[3] = 60 mg single oral, healthy subjects
[4] = 60 mg single oral, healthy subjects (30)
[5] = overall, 60 mg single oral, mild

Compound: C=CC(=O)Nc1cc(Nc2cc(N3OCC[C@@H]3c3cc(F)cc(F)c3)ncn2)c(OC)cc1N1CCC(N2CCN(C3CC3)CC2)CC1 [Compound I, N-[2-[4-(4-cyclopropyl-1-piperazinyl)-1-piperidinyl]-5-[[6-[(3R)-3-(3,5-difluorophenyl)-2-isoxazolidinyl]-4-pyrimidinyl]amino]-4-methoxyphenyl]-2-propenamide]
- Bioavailability profile in plasma and brain ([1]; oral 3 mg/kg): excellent bioavailability profile
- Unbound brain concentration ([1]; oral 3 mg/kg, 8 h): below the limit of quantitation (BLOQ)
- Unbound brain concentration compared to tucatinib ([1]; oral, 1 h and 4 h, 3 mg/kg Compound I vs 50 mg/kg tucatinib): much higher unbound brain concentration
- Unbound plasma concentration relative to tucatinib ([1]; oral, 8 h, 3 mg/kg Compound I vs 50 mg/kg tucatinib): about 15 fold
- Total area under the curve (AUC) higher than that of tucatinib ([1]; oral, first eight hours, 3 mg/kg Compound I vs 50 mg/kg tucatinib, brain context): about 800%
- Blood-brain barrier penetration compared to tucatinib ([1]; oral, 3 mg/kg Compound I vs 50 mg/kg tucatinib): superior ability of Compound I to penetrate the blood-brain barrier as compared to tucatinib
- Safety and tolerability ([2]; 60 mg single oral (capsule or tablet), fasting, healthy subjects): generally safe and well tolerated
- Clinical laboratory tests, vital signs, 12-lead ECG, physical examination [2, 3]: no clinically significant findings or trends
- Deaths, serious adverse events (SAEs), or TEAEs leading to discontinuation [2, 3]: no deaths, serious adverse events (SAEs), or TEAEs leading to subject discontinuation
- Severe TEAEs [2, 4]: No severe TEAEs were reported
- Subjects reporting TEAEs [2, 4]: 47%
- Subjects reporting TEAEs, number [2, 4]: 14 n
- Subjects with TEAEs of maximum severity mild [2, 4]: 33%
- Subjects with TEAEs of maximum severity mild, number [2, 4]: 10 n
- Subjects with TEAEs of maximum severity moderate [2, 4]: 13%
- Subjects with TEAEs of maximum severity moderate, number [2, 4]: 4 n
- Subjects with TEAEs related to the study drug [2, 4]: 40%
- Subjects with TEAEs related to the study drug, number [2, 4]: 12 n
- Constipation (TEAE) [2, 5]: 10%
- Constipation (TEAE), number of subjects [2, 5]: 3 n
- Dry skin (TEAE) [2, 5]: 10%
- Dry skin (TEAE), number of subjects [2, 5]: 3 n
- Epistaxis (TEAE) [2, 5]: 10%
- Epistaxis (TEAE), number of subjects [2, 5]: 3 n
- Papular rash (TEAE) [2, 5]: 10%
- Papular rash (TEAE), number of subjects [2, 5]: 3 n
